Laboratory results: US4397858A, “Treatment of rheumatism and arteriosclerosis with n-halogenophenyl-benzisothiazoles” (A. Nattermann & Cie GmbH, priority 1980, dated 1983)

What was measured:
[1] = test system: rats; assay: Rat paw oedema test (HILLEBRECHT), carragenin; type: in vivo; conditions: 3 hours, relative to control group
Experimental: Determination of antiphlogistic activity by HILLEBRECHT's rat paw oedema test (J. HILLEBRECHT, Arzeim. Forsch. 1954, Vol. 4, page 607). An oedema was produced in one of the rear paws of rats weighing from 120 g to 150 g by the subplantar injection of carragenin (0.5% in a 0.9% NaCl-solution) in a quantity of 0.1 ml of solution per paw. After administration of the test substance, which generally should not exceed a volume of 10 ml per kg of body weight, the volume of the paw is determined in an overflow. After 3 hours, the final value is determined. For each dose, the test is carried out with 10 test animals and 10 control animals of one sex and repeated with the same number of animals of the other sex. For the purposes of evaluation, inhibition of the oedema is expressed as a percentage on relation to the control group.

[2] = test system: rats; assay: Granuloma test (Cotton pellet test) according to R. MEIER; type: in vivo; conditions: rat
Excerpt: Granuloma test (Cotton pellet test) according to R. MEIER et al. Experientia 6, 469 (1950)
In this test, cottonwool pellets impregnated with croton oil were implanted subcutaneously in the test animals (rats) to induce the formation of granulomas in the connective tissue. After the animals had been killed, the granulomas were excised and weighed moist or dry. The anti-proliferative effect of an antiphlogistic is reflected in light weights of the granulomas by comparison with untreated controls.

[3] = test system: stomach mucosa of Wistar rats; assay: Ulcer test (ulcer-inducing effect in rats); type: in vivo, Wistar rat; conditions: rat
Experimental: J. Toxicol. […] A bleeding stomach ulcer is induced by oral administration of the active principle. After 3.5 hours, the animals are killed, their stomachs removed, cut open along the major curvature and stretched across a Styropor plate. The frequency and extent of average ulcer formation in the test and control groups is determined.

[4] = Toxicity, mice, oral (lethality); conditions: mouse, in vivo
[5] = test system: Wistar rats; assay: Adjuvant arthritis (C. M. PEARSON), Freund's adjuvant; type: in vivo, Wistar rat; conditions: rat
Experimental: 3. Adjuvant arthritis (C. M. PEARSON, proc.Soc.exp.Biol. 91, 95-101 (1956)
10 Wistar rats weighing from 120 g to 150 g are used per dose. The same number of animals is used for control purposes. An arthritis is induced by the administration of 0.5 ml of Freund's adjuvant by subplantar injection. The test lasts 17 days. At the beginning of the test, the paw volume of all four extremities is determined and used as the starting value. […] For evaluation purposes, the difference between the starting volume and final volume of the paws both of the test group and of the control group is calculated and inhibition expressed as a percentage.

[6] = 1.0 mg/kg p.o. (printed 1 for Indometacin)
[7] = 1 mg/kg p.o. (1.0 for Indometacin), 7th day p.i.
[8] = 1 mg/kg p.o. (1.0 for Indometacin), 14th day p.i.
[9] = 1 mg/kg p.o. (1.0 for Indometacin), 17th day p.i.

O=c1c2ccccc2sn1-c1ccc(Cl)cc1 [2-(4-chlorophenyl)-1,2-benzisothiazol-3(2H)-one]
Oedema inhibition ([1]; 0.01 mg/kg p.o.): -13% | Oedema inhibition ([1]; 0.1 mg/kg p.o.): -22% | Oedema inhibition ([1]; 1.0 mg/kg p.o.): -36% | Reduction in weight of the granulomas ([2]; 0.1 mg/kg p.o.): -26% | Reduction in weight of the granulomas [2, 6]: -43% | Reduction in weight of the granulomas ([2]; 10 mg/kg p.o.): -44% | Ulcer-inducing effect ([3]; 1 mg/kg p.o., 3.5 hours): 0 | Ulcer-inducing effect ([3]; 10 mg/kg p.o., 3.5 hours): 0 | Ulcer-inducing effect ([3]; 100 mg/kg p.o., 3.5 hours): 0 | mortality ([4]; 3 160 mg/kg p.o.): 0% | Inhibition (adjuvant arthritis, paw volume) [5, 7]: -27% | Inhibition (adjuvant arthritis, paw volume) [5, 8]: -44% | Inhibition (adjuvant arthritis, paw volume) [5, 9]: -45% | Inhibition (adjuvant arthritis, paw volume) ([5]; 3.2 mg/kg p.o., 7th day p.i.): -46% | Inhibition (adjuvant arthritis, paw volume) ([5]; 3.2 mg/kg p.o., 14th day p.i.): -51% | Inhibition (adjuvant arthritis, paw volume) ([5]; 3.2 mg/kg p.o., 17th day p.i.): -56%

COc1ccc2c(c1)c(CC(=O)O)c(C)n2C(=O)c1ccc(Cl)cc1 [Indometacin, 1-(p-chlorobenzoyl)-5-methoxy-2-methyl-3-indole acetic acid, reference compound]
Oedema inhibition ([1]; 3.8 mg/kg p.o.): -26% | Oedema inhibition ([1]; 5.6 mg/kg p.o.): -45% | Reduction in weight of the granulomas [2, 6]: -21% | Reduction in weight of the granulomas ([2]; 3.2 mg/kg p.o.): -7% | Reduction in weight of the granulomas ([2]; 5.6 mg/kg p.o.): -6% | Ulcer-inducing effect ([3]; in vivo, po, 3.2 mg/kg): ++ | Ulcer-inducing effect ([3]; in vivo, po, 5.6 mg/kg): +++ | Ulcer-inducing effect ([3]; in vivo, po, 7.5 mg/kg): +++ | mortality ([4]; 38 mg/kg p.o.): 50% | Inhibition (adjuvant arthritis, paw volume) ([5]; 0.32 mg/kg p.o., 7th day p.i.): -20% | Inhibition (adjuvant arthritis, paw volume) ([5]; 0.32 mg/kg p.o., 14th day p.i.): -26% | Inhibition (adjuvant arthritis, paw volume) ([5]; 0.32 mg/kg p.o., 17th day p.i.): -33% | Inhibition (adjuvant arthritis, paw volume) [5, 7]: -50% | Inhibition (adjuvant arthritis, paw volume) [5, 8]: -40% | Inhibition (adjuvant arthritis, paw volume) [5, 9]: -40%
